Measured values published in US11839212B2, “Synergistic pesticidal compositions and methods for delivery of insecticidal active ingredients” (0903608 B.C. Ltd., priority 2018, dated 2023).
Where two headings read alike, the source gives them in different places.

What was measured:
Botrytis cinerea = assay: Synergistic Growth Inhibition Assay (MIC and FIC index, 96-well, resazurin); assay type: cell-based; conditions: Botrytis cinerea, 48 h, Compound B alone
In short: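 Checkerboard microdilution of pesticidal active ingredient combined with C6–C10 (or C11/C12) aliphatic acid against Botrytis cinerea, with growth read by resazurin colour change plus visual check. FIC index = sum of each agent's concentration in the inhibiting well divided by its MIC alone; 1 denotes additivity.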

Fusarium oxysporum = assay: as above; assay type: cell-based; conditions: Fusarium oxysporum, Compound B alone
In short: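 Checkerboard dilutions of pesticidal active plus C6–C10 (or C11/C12) aliphatic acid in 96-well plates; growth scored by resazurin colour change, optionally visual.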

Trichoplusia ni [1] = assay: In-planta insecticidal efficacy on sprayed cabbage plants, spinosad (Entrust® SC) with octanoic acid (Abbott efficacy, Colby synergy factor); assay type: in vivo; conditions: octanoic acid alone at 100 ppm; Abbott-corrected
Protocol: Green cabbage plants (Brassica oleracea var. capitate, Danish Ballhead cultivar) were grown from seed (available from West Coast Seeds, Delta, BC, Canada) in potting soil for 4-6 weeks in a pest-free indoor growing environment. At between 4-6 weeks of age, each cabbage plant was sprayed with 20 mL of treatment solution using a pressurized CO2 sprayer, and allowed to dry.
(§1) While for SF<1, antagonism is present and for SF=1, the efficacy of the compounds is merely additive.

Trichoplusia ni [2] = assay: In-vitro insecticidal efficacy on artificial diet, spinosad (Entrust® SC) with aliphatic acids (Abbott efficacy, Colby synergy factor); assay type: in vivo; conditions: Entrust SC 0.034 ppm ([…] spinosad); aliphatic acid (salt) 500 ppm; after 5 days; Abbott-corrected
Protocol: An artificial diet suitable for Trichoplusia ni (cabbage looper caterpillar) was prepared from a commercially available general purpose lepidoptera artificial diet premix (General Purpose Lepidoptera Diet available from Frontier Scientific Services, Newark, DE) mixed in agar media and then heated to liquify the media. The liquid artificial diet media was then used to fill each well of a 96-well treatment plate with 200 uL of artificial diet media, which was allowed to solidify at room temperature and stored at approximately 4 C.
A 20 uL treatment sample of each treatment formulation was then placed on top of the solidified artificial diet media in each well of the 96 well plates and allowed to dry overnight. The following day, one neonate Trichoplusia ni (cabbage looper) larva (hatched from eggs obtained from the Natural Resource Canada insect research facility in Sault-Ste-Marie, ON, Canada) was added to each well of the plate, and their mortality rate was evaluated after 5 days, to determine the insecticidal efficacy of the Entrust® SC treatment alone, each exemplary unsaturated or saturated aliphatic acid (and salt) alone, and each combination of spinosad (as Entrust® SC) and unsaturated or saturated aliphatic acid (and salt). Each experiment contained 3 replicates.
as §1

Trichoplusia ni [3] = assay: In-planta insecticidal efficacy on sprayed cabbage plants, Pylon® (chlorfenapyr) with unsaturated aliphatic acids (Colby synergy factor); assay type: in vivo; conditions: 0.06 mg/mL aliphatic acid (salt)
Protocol: A stock solution was prepared for trans-2-hexenoic acid (available from Sigma-Aldrich, St. […] Green cabbage plants (Brassica oleracea var. capitate, Danish Ballhead cultivar) were grown from seed (available from West Coast Seeds, Delta, BC, Canada) in potting soil for 4 weeks in a pest-free indoor growing environment. At 4 weeks of age, each cabbage plant was sprayed with 10 mL of treatment solution using a hand pump sprayer bottle, and allowed to dry. […] The treated cabbage plants were then placed in nylon isolation tents and kept in an indoor growing environment and the larvae were left to feed on the plants. In one set of cabbage plants, the larvae were left to feed for 48 hours, and then the number of surviving larvae were observed and survival rates (%) were determined. In a second separate set of cabbage plants, the larvae were left to feed for 72 hours, and then the number of surviving larvae were observed and survival rates (%) were determined. Each experiment was repeated at least 3 times. […] In accordance with the Colby Formula, the expected efficacy, E (%), of a combination treatment of compounds A and B in concentrations a and b, respectively, can be determined by evaluating: […] The existence and extent of synergy present in a combination treatment can be determined according to the Colby Formula by evaluating a Synergy Factor, SF=(Observed efficacy)/(Expected efficacy).

Sclerotinia sclerotiorum = assay: Synergistic Growth Inhibition Assay (MIC and FIC index, 96-well, resazurin); assay type: cell-based; conditions: Sclerotinia sclerotiorum, […], Compound B alone, incubation 7 days
In short: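 Checkerboard of pesticidal active ingredient combined with C6–C10 (or C11/C12) aliphatic acids in serial dilutions against Sclerotinia sclerotiorum. Growth scored by resazurin colour change plus visual inspection; FIC index is the sum of each agent's concentration divided by its MIC alone, with 1 indicating additivity.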

Alternaria solani = assay: as above; assay type: cell-based; conditions: Alternaria solani, […], read-out: MIC (B)
In short: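 Checkerboard assay in 96-well plates: serial dilutions of active ingredient combined with C6–C10 aliphatic acid, fungus pre-grown to exponential phase in potato dextrose broth. MIC per agent alone and in combination; FIC = combination concentration/MIC alone, FIC index = sum of both agents' FICs (1 = additive).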

SMILES: CCCCCCCC(=O)O [Octanoic acid, octanoic acid]
- MIC (Botrytis cinerea; Table 58, 48 hours incubation, read-out: MIC (B)): 625 µg/mL
- MIC (Fusarium oxysporum; 24 h, Table 7, 24 hour incubation, read-out: MIC(B)): 569 µg/mL
- MIC (Fusarium oxysporum; 24 h, Table 9, 24 hour incubation, read-out: MIC (B)): 569 µg/mL
- MIC (Fusarium oxysporum; Table 8, read-out: MIC (B)): 1140 µg/mL
- Observed Efficacy, W (%) (Trichoplusia ni [1]): 0%

SMILES: CCCC=CCC(=O)O [3-heptanoic acid]
- Observed Efficacy, W (%) (Trichoplusia ni [2]): 4.5%

SMILES: C/C=C/C=C/C(=O)[O-].[K+] [(2E,4E)-2,4 hexadienoic acid, K-salt]
- Observed Efficacy, W (%) (Trichoplusia ni [2]): 9.1%

SMILES: CCCCCCCC(=O)[O-].[K+] [Octanoic acid, K-salt]
- Observed Efficacy, W (%) (Trichoplusia ni [2]): 0%

SMILES: CC=CC=CC(=O)[O-].[K+] [2,4-hexadienoic acid, K-salt]
- Observed Efficacy (%) (Trichoplusia ni [3]; after 48 hours): 13%
- Observed Efficacy (%) (Trichoplusia ni [3]; after 72 hours): 0%

SMILES: CCCCCC(=O)O [Hexanoic acid, hexanoic acid]
- MIC (Sclerotinia sclerotiorum; read-out: MIC (B), Table 16): 39.1 µg/mL
- MIC (Sclerotinia sclerotiorum; read-out: MIC (B), Table 17): 39.1 µg/mL
- MIC (Sclerotinia sclerotiorum; read-out: MIC (B), Table 19): 78.1 µg/mL
- MIC (Botrytis cinerea; read-out: MIC (B), Table 21, incubation 48 hours): 78.1 µg/mL
- MIC (Botrytis cinerea; read-out: MIC (B), Table 22, incubation 48 hours): 78.1 µg/mL
- MIC (Botrytis cinerea; read-out: MIC (B), Table 25, 48 hours incubation): 78.1 µg/mL
- MIC (Fusarium oxysporum; 24 h, read-out: MIC(B), Table 7, 24 hour incubation): 145 µg/mL
- MIC (Fusarium oxysporum; read-out: MIC (B), Table 8): 290 µg/mL
- MIC (Alternaria solani): 156 µg/mL
